Columns and labels:
[1] = tested on: human ovarian cancer OVCAR-3 cell; experiment: Synergistic inhibition of Example 1 in combination with senaparib, MTT assay; assay type: cell-based; settings: for Combination Index (CI): OVCAR-3, 3 days
Description: The cells were digested by trypsinase and centrifuged at 800 rpm for 5 minutes, the supernatant was discarded, and the residual was resuspended with fresh medium (1640 medium+10% FBS) and counted. The cells were seeded into 96-well cell culture plate with an appropriate density and incubated overnight in a 5% CO2 incubator at 37° C. The stock solutions of the test substances were serially diluted to 4-5 concentrations by DMSO at the ratios of 1:3, respectively. 5 µL diluent of each concentration was added to 120 μL of medium (25 times diluted) and mixed by shaking. The overnight cell plates were taken and the culture medium was removed, […] of fresh medium was added to each well, and 5 μL of diluted compound or 5 μL of medium containing DMSO was added respectively (the final concentration of DMSO is 1%), and the culture plate was then placed in a 5% CO2 incubator at 37° C. for 3 days. After removing the original solution, 100 μL of fresh serum-free DMEM medium containing MTT (0.5 mg/mL) was added to each well, the culture was continued. After 4 hours, the original solution was removed, 100 μL of DMSO was added to each well, the 96-well plates were shaken for 10 minutes in the dark and placed in a multi-function reader to read the absorbance at the wavelength of 552/690 nm. Cell viability (%)=(ODcompound−ODbackground)/(ODDMSO−ODbackground)×100. The combination index (CI) was calculated with the software CalcuSyn.

[2] = tested on: HCT116 (human colorectal adenocarcinoma cell); experiment: MTT proliferation assay of Example 1, HCT116; assay type: cell-based; settings: HCT-116, 96 h, 4 days
Description: (§1) The cells were digested by trypsinase and centrifuged at 800 rpm for 5 minutes, the supernatant was discarded, and the residual was resuspended with fresh medium (1640 medium+10% FRS) and counted. The cells were seeded into 96well cell culture plate with a density of 2000/4000 cells per well and incubated overnight in a 5% CO2 incubator at 37° C. The stock solutions of the test substances were serially diluted to 8 concentrations by DMSO at the ratios of 1:3 and 1:10, respectively. 5 μL diluent of each concentration was added to […] (25 times diluted) and mixed by shaking. The overnight cell plates were taken and the culture medium was removed, 195 μL of fresh medium was added to each well, and 5 μL of diluted medium containing the corresponding concentration of the test compound was added respectively (the final concentration of DMSO is 1%), and the culture plate was then placed in a 5% CO2 incubator at 37° C for 4 days. After removing the original solution, […] of fresh serum-free DMEM medium containing MTT (0.5 mg/mL) was added to each well, the culture was continued. After 4 hours, the original solution was removed, 100 μL, of DMSO was added to each well, the 96-well plates were shaken for 10 minutes in the dark and placed in a multi-function reader to read the absorbance at the wavelength of 552/690 nm. […]

[3] = tested on: human lung cancer NCI-H460 cell; experiment: MTT proliferation assay, NCI-H460; assay type: cell-based; settings: NCI-H460, 96 h, MTT, 4 days, read-out: IC50 (nM), proliferation of NCI-H460 cell
Description: The cells were digested by trypsinase and centrifuged at 800 rpm for 5 minutes, the supernatant was discarded, and the residual was resuspended with fresh medium […]) and counted.
The cells were seeded into 96-well cell culture plate with a density of 2000/4000 cells per well and incubated overnight in a 5% CO2 incubator at 37° C. […] 5 μL diluent of each concentration was added to 120 μL of medium (25 times diluted) and mixed by shaking. The overnight cell plates were taken and the culture medium was removed, 195 μL of fresh medium was added to each well, and 5 μL of diluted medium containing the corresponding concentration of the test compound was added respectively (the final concentration of DMSO is 1%), and the culture plate was then placed in a 5% CO2 incubator at 37° C. for 4 days. After removing the original solution, 100 μL of fresh serum-free DMEM medium containing MTT (0.5 mg/mL) was added to each well, the culture was continued. […] Cell viability (%)=(ODcompound−ODbackground)/(ODDMSO−ODbackground)×100. GraphPad Prism 6.0 was used to analyze the data. The inhibitory activity of compounds on cell proliferation was plotted based on cell viability and the logarithm of compound concentration. The IC50 value was fitted by a sigmoidal dose response curve equation […], wherein C was the concentration of compound.

ATR/ATRIP enzyme = molecular target: T1, ATR/ATRIP enzyme (Homo sapiens, UniProt Q13535); experiment: ATR enzyme activity experiment (HTRF); assay type: biochemical; settings: p53 substrate, 30 min room temperature, read-out: IC50 (nM), inhibitory effect on ATR kinase activity
T1 construct: purchased Eurofins 14-953
Description: The mixture was centrifuged at 1000 rpm for 1 minute, and reacted at room temperature protected from light for 30 minutes. Then 5 μL of EDTA stop solution (250 mM) was added to stop the reaction.

[4] = tested on: human breast cancer HCC1806 cell; experiment: MTT proliferation assay of Example 1, HCC1806; assay type: cell-based; settings: HCC1806, 96 h, 4 days
Description: as §1

[5] = Pharmacokinetics following single oral administration to mice; assay type: in vivo; settings: mouse, CD-1 (ICR) mice, gavage 10 mg/kg, 0.5% methylcellulose/water suspension, plasma
Description: The compound of the present invention was formulated into a 0.5% methylcellulose/water uniform suspension, and was administered to CD-1 (ICR) mice by gavage at 10 mg/kg. Plasma samples were collected at 8 time points of 0.250, 0.500, 1.00, 2.00, 4.00, 6.00, 8.00 and 24.0 hours post-dose. Concentrations of the compound were determined by LC-MS/MS method.

[6] = tested on: human non-small cell lung cancer A549 cell; experiment: MTT proliferation assay of Example 1, A549; assay type: cell-based; settings: A549, 96 h, 4 days
Description: as §1

T1 sequence (Q13535 whole entry): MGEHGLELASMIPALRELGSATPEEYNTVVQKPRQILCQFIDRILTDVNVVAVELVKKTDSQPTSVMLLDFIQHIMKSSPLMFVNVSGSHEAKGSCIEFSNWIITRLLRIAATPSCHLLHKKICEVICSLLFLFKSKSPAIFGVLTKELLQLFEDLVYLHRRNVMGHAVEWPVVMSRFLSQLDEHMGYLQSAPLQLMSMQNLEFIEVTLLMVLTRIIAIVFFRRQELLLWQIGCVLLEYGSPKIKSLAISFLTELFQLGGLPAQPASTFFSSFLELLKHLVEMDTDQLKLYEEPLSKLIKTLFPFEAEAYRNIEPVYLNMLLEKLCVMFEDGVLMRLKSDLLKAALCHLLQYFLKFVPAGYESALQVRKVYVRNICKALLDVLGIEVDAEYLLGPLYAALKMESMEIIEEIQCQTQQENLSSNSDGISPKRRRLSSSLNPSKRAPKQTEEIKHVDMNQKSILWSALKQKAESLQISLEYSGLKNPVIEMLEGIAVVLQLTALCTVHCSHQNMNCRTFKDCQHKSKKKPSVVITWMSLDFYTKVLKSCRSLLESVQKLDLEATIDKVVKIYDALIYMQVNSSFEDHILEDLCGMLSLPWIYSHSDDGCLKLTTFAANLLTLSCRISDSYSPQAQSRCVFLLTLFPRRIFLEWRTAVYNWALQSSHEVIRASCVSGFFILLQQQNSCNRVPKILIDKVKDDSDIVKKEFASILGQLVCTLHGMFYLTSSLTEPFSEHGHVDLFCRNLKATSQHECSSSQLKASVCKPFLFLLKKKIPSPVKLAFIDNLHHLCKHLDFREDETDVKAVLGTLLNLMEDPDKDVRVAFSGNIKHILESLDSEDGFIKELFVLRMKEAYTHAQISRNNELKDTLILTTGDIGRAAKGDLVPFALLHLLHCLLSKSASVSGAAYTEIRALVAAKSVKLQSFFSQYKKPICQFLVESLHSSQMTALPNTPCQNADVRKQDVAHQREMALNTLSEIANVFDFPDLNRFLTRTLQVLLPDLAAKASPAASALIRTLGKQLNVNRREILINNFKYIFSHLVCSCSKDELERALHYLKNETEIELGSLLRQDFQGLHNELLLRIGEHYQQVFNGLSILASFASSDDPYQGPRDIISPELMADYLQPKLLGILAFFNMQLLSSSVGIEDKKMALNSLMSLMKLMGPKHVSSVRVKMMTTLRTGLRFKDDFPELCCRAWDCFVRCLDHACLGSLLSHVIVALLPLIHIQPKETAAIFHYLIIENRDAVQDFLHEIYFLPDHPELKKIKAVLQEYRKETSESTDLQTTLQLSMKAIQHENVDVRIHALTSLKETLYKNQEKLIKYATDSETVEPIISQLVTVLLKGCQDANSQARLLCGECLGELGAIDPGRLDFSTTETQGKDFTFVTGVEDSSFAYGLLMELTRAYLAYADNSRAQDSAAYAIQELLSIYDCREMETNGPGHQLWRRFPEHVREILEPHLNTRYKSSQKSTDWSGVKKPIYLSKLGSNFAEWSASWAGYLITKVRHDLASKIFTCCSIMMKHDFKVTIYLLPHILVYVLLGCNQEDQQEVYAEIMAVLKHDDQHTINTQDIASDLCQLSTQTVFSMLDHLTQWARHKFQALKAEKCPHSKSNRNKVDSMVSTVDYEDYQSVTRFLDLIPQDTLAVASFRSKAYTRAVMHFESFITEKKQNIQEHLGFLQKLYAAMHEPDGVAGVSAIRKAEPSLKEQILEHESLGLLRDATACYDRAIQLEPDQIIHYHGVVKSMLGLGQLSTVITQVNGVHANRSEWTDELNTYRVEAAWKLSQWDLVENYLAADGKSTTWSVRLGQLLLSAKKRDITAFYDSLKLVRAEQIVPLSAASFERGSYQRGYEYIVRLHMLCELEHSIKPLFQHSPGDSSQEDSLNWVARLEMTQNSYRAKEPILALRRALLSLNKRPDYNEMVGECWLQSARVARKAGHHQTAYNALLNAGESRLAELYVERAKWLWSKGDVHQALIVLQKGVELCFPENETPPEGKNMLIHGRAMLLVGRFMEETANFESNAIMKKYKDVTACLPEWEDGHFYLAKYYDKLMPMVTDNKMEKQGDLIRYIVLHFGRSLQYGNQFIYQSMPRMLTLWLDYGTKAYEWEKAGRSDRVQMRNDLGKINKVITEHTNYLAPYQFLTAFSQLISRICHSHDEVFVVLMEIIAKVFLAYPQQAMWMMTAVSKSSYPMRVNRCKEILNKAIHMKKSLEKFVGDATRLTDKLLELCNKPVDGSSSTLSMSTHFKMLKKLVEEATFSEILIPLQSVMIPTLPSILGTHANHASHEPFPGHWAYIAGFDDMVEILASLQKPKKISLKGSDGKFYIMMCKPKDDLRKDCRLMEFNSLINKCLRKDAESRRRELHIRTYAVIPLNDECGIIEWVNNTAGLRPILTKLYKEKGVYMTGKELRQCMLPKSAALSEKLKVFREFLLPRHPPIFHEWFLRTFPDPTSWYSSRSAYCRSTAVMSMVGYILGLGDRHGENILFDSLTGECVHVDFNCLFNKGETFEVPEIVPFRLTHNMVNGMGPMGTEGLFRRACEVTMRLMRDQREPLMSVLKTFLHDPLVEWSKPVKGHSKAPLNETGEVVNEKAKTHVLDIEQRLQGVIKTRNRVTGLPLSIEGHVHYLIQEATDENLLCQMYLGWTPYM
T1 sequence (Q8WXE1 whole entry partner): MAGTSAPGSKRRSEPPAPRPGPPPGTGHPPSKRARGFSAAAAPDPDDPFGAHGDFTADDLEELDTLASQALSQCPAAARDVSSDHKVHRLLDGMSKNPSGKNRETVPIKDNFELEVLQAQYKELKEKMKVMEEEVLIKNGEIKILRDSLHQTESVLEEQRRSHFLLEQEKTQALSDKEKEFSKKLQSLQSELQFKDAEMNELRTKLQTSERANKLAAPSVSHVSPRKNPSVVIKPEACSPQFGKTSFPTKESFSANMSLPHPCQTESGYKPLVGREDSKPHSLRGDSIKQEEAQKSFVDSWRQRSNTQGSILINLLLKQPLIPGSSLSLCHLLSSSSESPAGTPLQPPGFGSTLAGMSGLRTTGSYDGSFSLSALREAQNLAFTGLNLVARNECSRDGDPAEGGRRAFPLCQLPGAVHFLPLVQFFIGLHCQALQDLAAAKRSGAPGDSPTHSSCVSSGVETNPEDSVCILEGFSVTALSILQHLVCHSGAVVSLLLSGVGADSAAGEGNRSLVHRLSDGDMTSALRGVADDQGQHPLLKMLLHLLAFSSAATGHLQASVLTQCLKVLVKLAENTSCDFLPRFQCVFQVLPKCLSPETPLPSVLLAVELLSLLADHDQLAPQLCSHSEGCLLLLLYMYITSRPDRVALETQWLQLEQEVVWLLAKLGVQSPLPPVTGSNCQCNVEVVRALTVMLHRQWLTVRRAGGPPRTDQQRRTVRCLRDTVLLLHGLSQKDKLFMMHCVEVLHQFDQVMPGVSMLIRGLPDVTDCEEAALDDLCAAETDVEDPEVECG

Which results are given for Cc1nc(-c2ccn[nH]2)n2nc(N3CCOC[C@H]3C)cc(-c3ccnn3C)c12 [Example 1, (R)-3-methyl-4-(5-methyl-4-(1-methyl-1H-pyrazol-5-yl)-7-(1H-pyrazol-5-yl)imidazo[1,5-b]pyridazin-2-yl)morpholine]?
Combination Index (CI) ([1]; 11 nM Example 1 + 37 nM senaparib): 1.157; Combination Index (CI) ([1]; 11 nM Example 1 + 111 nM senaparib): 0.215; Combination Index (CI) ([1]; 11 nM Example 1 + 333 nM senaparib): 0.069; Combination Index (CI) ([1]; 11 nM Example 1 + 1000 nM senaparib): 0.052; Combination Index (CI) ([1]; 11 nM Example 1 + 3000 nM senaparib): 0.044; Combination Index (CI) ([1]; 33 nM Example 1 + 37 nM senaparib): 0.275; Combination Index (CI) ([1]; 33 nM Example 1 + 111 nM senaparib): 0.213; Combination Index (CI) ([1]; 33 nM Example 1 + 333 nM senaparib): 0.18; Combination Index (CI) ([1]; 33 nM Example 1 + 1000 nM senaparib): 0.148; Combination Index (CI) ([1]; 33 nM Example 1 + 3000 nM senaparib): 0.12; Combination Index (CI) ([1]; 100 nM Example 1 + 37 nM senaparib): 0.603; Combination Index (CI) ([1]; 100 nM Example 1 + 111 nM senaparib): 0.544; Combination Index (CI) ([1]; 100 nM Example 1 + 333 nM senaparib): 0.488; Combination Index (CI) ([1]; 100 nM Example 1 + 1000 nM senaparib): 0.424; Combination Index (CI) ([1]; 100 nM Example 1 + 3000 nM senaparib): 0.364; Combination Index (CI) ([1]; 300 nM Example 1 + 37 nM senaparib): 1.588; Combination Index (CI) ([1]; 300 nM Example 1 + 111 nM senaparib): 1.471; Combination Index (CI) ([1]; 300 nM Example 1 + 333 nM senaparib): 1.377; Combination Index (CI) ([1]; 300 nM Example 1 + 1000 nM senaparib): 1.276; Combination Index (CI) ([1]; 300 nM Example 1 + 3000 nM senaparib): 1.195; synergistic effect on inhibiting the proliferation of OVCAR-3 cells (in words) ([1]; combination of Example 1 and senaparib): good synergistic effect; IC50 [2]: 22.5 nM; IC50 [3]: 16.5 nM; IC50 (ATR/ATRIP enzyme): 1 nM; IC50 [4]: 38.8 nM; AUC(0-inf) [5]: 98500 ng·h/mL; AUC(0-t) [5]: 98500 ng·h/mL; Cmax [5]: 9340 ng/mL; half-life [5]: 1.64 h; IC50 [6]: 157 nM

— US20240059695A1, “SUBSTITUTED IMIDAZO[1,5-b]PYRIDAZINE COMPOUNDS AS KINASE INHIBITORS AND USE THEREOF” (IMPACT THERAPEUTICS (SHANGHAI), INC, priority 2020, published 2024)
